Reference: patent publication US8148391B2 (Cephalon, Inc., priority 2006, dated 2012)
Read-outs that look alike come from different tables or passages of the source.

Experiments:
[1] = target: T1, baculovirus-expressed ALK (Homo sapiens, UniProt Q9UM73); assay: ALK Kinase Assay (ELISA-type, time-resolved fluorescence); format: biochemical
T1 construct: host or cells: baculovirus expression system
Procedure, shortened: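 Plates coated with phospholipase C-γ substrate (10 μg/mL in TBS); reaction started with 30 ng/ml ALK and run 15 min at 37° C. Phosphorylated substrate detected with Eu-N1-labeled PT66 antibody. IC50 from sigmoidal variable-slope fit of percent inhibition vs log concentration.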

[2] = target: T2, c-Met (cytoplasmic domain) (Homo sapiens, UniProt P08581); assay: c-Met Kinase Assay (same methods as for ALK, with modifications); format: biochemical
T2 construct: 10 ng/mL c-Met (cytoplasmic domain, Invitrogen Corporation #PV3143); purchased Invitrogen Corporation PV3143
Procedure, shortened: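 Europium-labeled PT66 antibody (Eu-N1) detects substrate phosphorylation on wells coated with phospholipase C-γ at 10 μg/mL. The kinase, the cytoplasmic domain of c-Met at 10 ng/mL, starts the reaction, which proceeds 15 minutes at 37° C.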

[3] = ALK kinase inhibition, 1 μM ATP, read-out: ALK Activity
[4] = c-Met kinase inhibition, 1 μM ATP, read-out: cMet Activity
[5] = ALK kinase inhibition, 1 μM ATP (Km level), read-out: ALK Activity
[6] = c-Met kinase inhibition, 1 μM ATP (Km level), read-out: cMet Activity
[7] = 1 μM ATP (Km level), read-out: ALK Activity (ALK Kinase Inhibition, IC50)
[8] = 1 μM ATP (Km level), read-out: cMet Activity (c-Met Kinase Inhibition, IC50)

T1 sequence (Q9UM73 19-1620): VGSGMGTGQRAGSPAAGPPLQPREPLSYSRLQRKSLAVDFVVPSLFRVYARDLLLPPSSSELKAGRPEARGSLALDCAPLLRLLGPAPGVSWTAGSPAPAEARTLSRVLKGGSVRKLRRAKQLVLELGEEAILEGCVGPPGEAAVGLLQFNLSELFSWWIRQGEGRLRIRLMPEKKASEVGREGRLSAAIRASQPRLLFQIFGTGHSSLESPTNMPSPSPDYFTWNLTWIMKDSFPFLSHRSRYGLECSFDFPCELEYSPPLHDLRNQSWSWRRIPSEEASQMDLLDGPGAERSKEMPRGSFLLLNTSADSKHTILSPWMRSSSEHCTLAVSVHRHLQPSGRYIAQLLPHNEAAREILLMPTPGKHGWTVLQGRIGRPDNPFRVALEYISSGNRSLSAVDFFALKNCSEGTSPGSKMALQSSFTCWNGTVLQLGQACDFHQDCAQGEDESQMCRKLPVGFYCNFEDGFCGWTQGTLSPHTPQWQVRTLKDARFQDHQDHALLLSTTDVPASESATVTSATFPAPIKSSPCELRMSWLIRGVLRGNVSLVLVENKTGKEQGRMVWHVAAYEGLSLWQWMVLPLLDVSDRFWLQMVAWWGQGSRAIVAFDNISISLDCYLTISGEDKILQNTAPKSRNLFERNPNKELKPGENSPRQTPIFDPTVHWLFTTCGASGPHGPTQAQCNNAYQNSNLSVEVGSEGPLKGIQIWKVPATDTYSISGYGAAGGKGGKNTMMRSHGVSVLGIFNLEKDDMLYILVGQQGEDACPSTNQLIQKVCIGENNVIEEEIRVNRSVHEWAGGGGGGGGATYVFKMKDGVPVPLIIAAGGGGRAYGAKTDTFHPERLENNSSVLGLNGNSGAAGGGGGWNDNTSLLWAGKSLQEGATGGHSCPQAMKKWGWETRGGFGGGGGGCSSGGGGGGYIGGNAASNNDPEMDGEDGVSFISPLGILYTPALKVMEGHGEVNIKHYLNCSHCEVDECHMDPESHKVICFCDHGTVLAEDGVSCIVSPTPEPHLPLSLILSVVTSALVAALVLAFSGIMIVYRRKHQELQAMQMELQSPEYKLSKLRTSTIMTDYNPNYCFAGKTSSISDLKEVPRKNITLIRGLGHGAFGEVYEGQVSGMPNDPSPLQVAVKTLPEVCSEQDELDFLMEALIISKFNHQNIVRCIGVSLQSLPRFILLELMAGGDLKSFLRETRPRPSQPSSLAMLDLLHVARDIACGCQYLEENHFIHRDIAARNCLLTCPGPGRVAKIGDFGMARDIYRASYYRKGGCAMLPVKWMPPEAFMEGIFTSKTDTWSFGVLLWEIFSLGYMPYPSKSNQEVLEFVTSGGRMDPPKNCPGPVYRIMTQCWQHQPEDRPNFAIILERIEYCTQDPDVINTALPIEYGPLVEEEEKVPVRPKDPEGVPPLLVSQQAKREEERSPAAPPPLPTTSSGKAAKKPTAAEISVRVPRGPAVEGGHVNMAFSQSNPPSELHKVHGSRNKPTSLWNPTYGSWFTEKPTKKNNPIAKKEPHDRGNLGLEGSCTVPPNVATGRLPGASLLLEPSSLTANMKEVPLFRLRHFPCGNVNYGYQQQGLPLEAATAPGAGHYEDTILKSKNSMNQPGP
T2 sequence (P08581 956-1390 limits assumed): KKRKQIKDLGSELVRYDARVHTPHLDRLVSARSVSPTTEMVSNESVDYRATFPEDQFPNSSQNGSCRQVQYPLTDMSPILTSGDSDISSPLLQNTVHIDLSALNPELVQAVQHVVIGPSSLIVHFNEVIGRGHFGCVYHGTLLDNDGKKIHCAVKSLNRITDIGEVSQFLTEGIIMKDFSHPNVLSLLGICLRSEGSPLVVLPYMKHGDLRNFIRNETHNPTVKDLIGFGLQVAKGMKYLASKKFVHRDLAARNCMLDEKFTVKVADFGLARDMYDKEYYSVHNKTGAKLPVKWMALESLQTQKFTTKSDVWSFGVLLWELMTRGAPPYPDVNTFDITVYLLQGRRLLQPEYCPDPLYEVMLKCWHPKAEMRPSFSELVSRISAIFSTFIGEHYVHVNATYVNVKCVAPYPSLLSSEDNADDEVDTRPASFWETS

Compound	IC50 [1, 3] [nM]	IC50 [2, 4] [nM]	IC50 [1, 5] [nM]	IC50 [2, 6] [nM]	further results
CNC(=O)c1cccc(F)c1Nc1nc(Nc2ccc3c(c2)NC(=O)CN(CCC(F)(F)F)C3)ncc1Cl [Example 1861, 2-{5-Chloro-2-[2-oxo-4-(3,3,3-trifluoro-propyl)-2,3,4,5-tetrahydro-1H-benzo[e][1,4]diazepin-8-ylamino]-pyrimidin-4-ylamino}-3-fluoro-N-methyl-benzamide]	100 to 1000	< 100			
CNC(=O)c1cccc(F)c1Nc1nc(Nc2ccc3c(c2)NC(=O)CN(CCOC)C3)ncc1Cl [Example 1862, 2-{5-Chloro-2-[4-(2-methoxy-ethyl)-2-oxo-2,3,4,5-tetrahydro-1H-benzo[e][1,4]diazepin-8-ylamino]-pyrimidin-4-ylamino}-3-fluoro-N-methyl-benzamide]	100 to 1000	< 100			
CCN1CC(=O)Nc2cc(Nc3ncc(Cl)c(Nc4c(F)cccc4C(=O)NC)n3)ccc2C1 [Example 1863, 2-[5-Chloro-2-(4-ethyl-2-oxo-2,3,4,5-tetrahydro-1H-benzo[e][1,4]diazepin-8-ylamino)-pyrimidin-4-ylamino]-3-fluoro-N-methyl-benzamide]	100 to 1000	< 100			
CNC(=O)c1ccccc1Nc1nc(Nc2ccc3c(c2)NC(=O)CN(CCOC)C3)ncc1Cl [Example 1864, 2-{5-Chloro-2-[4-(2-methoxy-ethyl)-2-oxo-2,3,4,5-tetrahydro-1H-benzo[e][1,4]diazepin-8-ylamino]-pyrimidin-4-ylamino}-N-methyl-benzamide]	< 100	< 100			
CCN1CC(=O)Nc2cc(Nc3ncc(Cl)c(Nc4c(C)csc4C(=O)NC)n3)ccc2C1 [Example 1865, 3-[5-Chloro-2-(4-ethyl-2-oxo-2,3,4,5-tetrahydro-1H-benzo[e][1,4]diazepin-8-ylamino)-pyrimidin-4-ylamino]-4-methyl-thiophene-2-carboxylic acid methylamide]	100 to 1000	100 to 1000			
CNC(=O)c1scc(C)c1Nc1nc(Nc2ccc3c(c2)NC(=O)CN(C(=O)C(F)(F)F)C3)ncc1Cl [Example 1866, 3-{5-Chloro-2-[2-oxo-4-(2,2,2-trifluoro-acetyl)-2,3,4,5-tetrahydro-1H-benzo[e][1,4]diazepin-8-ylamino]-pyrimidin-4-ylamino}-4-methyl-thiophene-2-carboxylic acid methylamide]	1000 to 10000	100 to 1000			
CNC(=O)c1ccccc1Nc1nc(Nc2ccc3c(c2)NC(=O)CN(C)C3)ncc1Cl [Example 1867, 2-[5-Chloro-2-(4-methyl-2-oxo-2,3,4,5-tetrahydro-1H-benzo[e][1,4]diazepin-8-ylamino)-pyrimidin-4-ylamino]-N-methyl-benzamide]	1000 to 10000	< 100			
CNC(=O)c1scc(C)c1Nc1nc(Nc2ccc3c(c2)NC(=O)CN(C)C3)ncc1Cl [Example 1868, 3-[5-Chloro-2-(4-methyl-2-oxo-2,3,4,5-tetrahydro-1H-benzo[e][1,4]diazepin-8-ylamino)-pyrimidin-4-ylamino]-4-methyl-thiophene-2-carboxylic acid methylamide]	100 to 1000	< 100			
CCOC(=O)N1CC(=O)Nc2cc(Nc3ncc(Cl)c(Nc4c(F)cccc4C(=O)NC)n3)ccc2C1 [Example 1869, 8-[5-Chloro-4-(2-fluoro-6-methylcarbamoyl-phenylamino)-pyrimidin-2-ylamino]-2-oxo-1,2,3,5-tetrahydro-benzo[e][1,4]diazepine-4-carboxylic acid ethyl ester]	1000 to 10000	100 to 1000			
CCN1CC(=O)N(CC)c2cc(Nc3ncc(Cl)c(Nc4c(F)cccc4C(=O)NC)n3)ccc2C1 [Example 1870, 2-[5-Chloro-2-(1,4-diethyl-2-oxo-2,3,4,5-tetrahydro-1H-benzo[e][1,4]diazepin-8-ylamino)-pyrimidin-4-ylamino]-3-fluoro-N-methyl-benzamide]	100 to 1000	< 100			
CCN1C(=O)CN(S(C)(=O)=O)Cc2ccc(Nc3ncc(Cl)c(Nc4ccsc4C(=O)NC)n3)cc21 [Example 1872, 3-[5-Chloro-2-(1-ethyl-4-methanesulfonyl-2-oxo-2,3,4,5-tetrahydro-1H-benzo[e][1,4]diazepin-8-ylamino)-pyrimidin-4-ylamino]-thiophene-2-carboxylic acid methylamide]	1000 to 10000	1000 to 10000			
CCN1C(=O)CN(CCO)Cc2ccc(Nc3ncc(Cl)c(Nc4c(F)cccc4C(=O)NC)n3)cc21 [Example 1873, 2-{5-Chloro-2-[1-ethyl-4-(2-hydroxy-ethyl)-2-oxo-2,3,4,5-tetrahydro-1H-benzo[e][1,4]diazepin-8-ylamino]-pyrimidin-4-ylamino}-3-fluoro-N-methyl-benzamide]	100 to 1000	< 100			
CCN1CC(=O)N(CC)c2cc(Nc3ncc(Cl)c(Nc4c(C)csc4C(=O)NC)n3)ccc2C1 [Example 1874, 3-[5-chloro-2-(1,4-diethyl-2-oxo-2,3,4,5-tetrahydro-1H-benzo[e][1,4]diazepin-8-ylamino)-pyrimidin-4-ylamino]-4-methyl-thiophene-2-carboxylic acid methylamide]	100 to 1000	< 100			
CCOC(=O)N1CC(=O)N(CC)c2cc(Nc3ncc(Cl)c(Nc4c(F)cccc4C(=O)NC)n3)ccc2C1 [Example 1875, 8-[5-Chloro-4-(2-fluoro-6-methylcarbamoyl-phenylamino)-pyrimidin-2-ylamino]-1-ethyl-2-oxo-1,2,3,5-tetrahydro-benzo[e][1,4]diazepine-4-carboxylic acid ethyl ester]			1000 to 10000	< 100	
C#CCNC(=O)c1cccc(F)c1Nc1nc(Nc2ccc3c(c2)N(CC)C(=O)CN(C(=O)OCC)C3)ncc1Cl [Example 1876, 8-[5-Chloro-4-(2-fluoro-6-prop-2-ynylcarbamoyl-phenylamino)-pyrimidin-2-ylamino]-1-ethyl-2-oxo-1,2,3,5-tetrahydro-benzo[e][1,4]diazepine-4-carboxylic acid ethyl ester]			100 to 1000	< 100	
CNC(=O)c1cccc(F)c1Nc1nc(Nc2ccc3c(c2)N(C(C)=O)CC(=O)NC3)ncc1Cl [Example 1877, 2-[2-(1-Acetyl-3-oxo-2,3,4,5-tetrahydro-1H-benzo[e][1,4]diazepin-8-ylamino)-5-chloro-pyrimidin-4-ylamino]-3-fluoro-N-methyl-benzamide]			< 100	< 100	
CNC(=O)c1sccc1Nc1nc(Nc2ccc3c(c2)N(C(C)=O)CC(=O)NC3)ncc1Cl [Example 1878, 3-[2-(1-Acetyl-3-oxo-2,3,4,5-tetrahydro-1H-benzo[e][1,4]diazepin-8-ylamino)-5-chloro-pyrimidin-4-ylamino]-thiophene-2-carboxylic acid methyl amide]			100 to 1000	< 100	
CCN1CCN(C(C)=O)c2cc(Nc3ncc(Cl)c(Nc4c(F)cccc4C(=O)NC)n3)ccc2C1 [Example 1879, 2-[2-(1-Acetyl-4-ethyl-2,3,4,5-tetrahydro-1H-benzo[e][1,4]diazepin-8-ylamino)-5-chloro-pyrimidin-4-ylamino]-3-fluoro-N-methyl-benzamide]			100 to 1000	< 100	
CNC(=O)c1ccccc1Nc1nc(Nc2ccc3c(c2)C(=O)NCCO3)ncc1Cl [Example 1880, 2-[5-Chloro-2-(5-oxo-2,3,4,5-tetrahydro-benzo[f][1,4]oxazepin-7-ylamino)-pyrimidin-4-ylamino]-N-methyl-benzamide]			< 100	< 100	
CCN1C(=O)OCCc2ccc(Nc3ncc(Cl)c(Nc4ccccc4C(=O)NC)n3)cc21 [Example 1881, 2-[5-Chloro-2-(5-ethyl-6-oxo-5,6,8,9-tetrahydro-7-oxa-5-aza-benzocyclohepten-3-ylamino)-pyrimidin-4-ylamino]-N-methyl-benzamide]			100 to 1000	100 to 1000	
CCN1C(=O)OCCc2ccc(Nc3ncc(Cl)c(Nc4c(F)cccc4C(=O)NC)n3)cc21 [Example 1882, 2-[5-Chloro-2-(5-ethyl-6-oxo-5,6,8,9-tetrahydro-7-oxa-5-aza-benzocyclohepten-3-ylamino)-pyrimidin-4-ylamino]-3-fluoro-N-methyl-benzamide]			< 100	< 100	
CCN1C(=O)OCCc2ccc(Nc3ncc(Cl)c(Nc4ccsc4C(=O)NC)n3)cc21 [Example 1883, 3-[5-Chloro-2-(5-ethyl-6-oxo-5,6,8,9-tetrahydro-7-oxa-5-aza-benzocyclohepten-3-ylamino)-pyrimidin-4-ylamino]-thiophene-2-carboxylic acid methylamide]			< 100	< 100	
(1S,2S,3R,4R)-3-[2-(3-Carbamoylmethyl-8-methoxy-2,3,4,5-tetrahydro-1H-benzo[d]azepin-7-ylamino)-5-chloro-pyrimidin-4-ylamino]-bicyclo[2.2.1]hept-5-ene-2-carboxylic acid amide [Example 813]					IC50 [1, 7]: < 100 nM; IC50 [2, 8]: > 10000 nM
(1S,2S,3R,4R)-3-[5-Chloro-2-[4-cyclopropylmethyl-7-methoxy-2,3,4,5-tetrahydro-1H-benzo[e][1,4]diazepin-8-ylamino)-pyrimidin-4-ylamino]-bicyclo(2.2.1)hept-5-ene-2-carboxylic acid amide [Example 747]					IC50 [1, 7]: < 100 nM; IC50 [2, 8]: > 10000 nM
